Measurements published in patent US11000491B2, “Amino-aryl-benzamide compounds and methods of use thereof” (HEPANOVA, INC., priority 2017, dated 2021).
Like-named read-outs stand apart in the source and are kept apart here.

Experiments:
Format in all cases: cell-based
adiponectin = assay: Secreted adiponectin in differentiated 3T3-L1 cells by ELISA; conditions: differentiated mouse 3T3-L1 cells
Protocol: Differentiated, mouse 3T3-L1 cells were treated with varying concentrations of HPN-01, and the level of secreted adiponectin measured by ELISA.

FASN = assay: Lipogenic gene mRNA by real-time qPCR in Huh7 cells; conditions: 1 μM, 24 h
From the text: (§1) FIG. 8. Inhibition of various lipogenic gene mRNA levels following treatment with HPN-01. […] Sterol regulatory element-binding protein-1 (SREBP-1); Sterol regulatory element-binding protein-2 (SREBP-2); Fatty acid synthase (FASN); Stearoyl-CoA-desaturase (SCD1); Acetyl-CoA carboxylase (ACC); Elongation of very long chain fatty acids fatty acid elongase 6 (ELOVL6); Low density liporeceptor (LDLR); Fatty acid desaturase 1 (FADS1); Diacylglycerol 0-Acyltransferase 1 (DGAT1); Diacylglycerol 0-Acyltransferase 2 (DGAT2).
(§2) Huh7 cells were treated with 1 μM of HPN-01 for 24 h, and the mRNA expression levels of various pivotal lipogenic enzymes were quantified by real-time qPCR. […] Folds of inhibition were as follows: SREBP-1: 2.98±0.23; SREBP-2: 4.01±0.31; FASN: 3.87±0.23; SCD1: 4.63±0.48; ACC: 4.12±0.34; ELOVL6: 2.84±0.22; LDLR: 3.02±0.11; FADS1: 3.06±0.17; DGAT1: 1.72±0.27; DGAT2: 3.77±0.45.

LDLR = assay: as above; conditions: 1 μM, 24 h
From the text: as §1, §2

FADS1 = assay: as above; conditions: 1 μM, 24 h
From the text: as §1, §2

ACC = assay: as above; conditions: 1 μM, 24 h
From the text: as §1, §2

SREBP-1 [1] = assay: as above; conditions: 1 μM, 24 h
From the text: as §1, §2

DGAT2 = assay: as above; conditions: 1 μM, 24 h
From the text: as §1, §2

SREBP-2 [2] = assay: as above; conditions: 1 μM, 24 h
From the text: as §1, §2

ELOVL6 = assay: as above; conditions: 1 μM, 24 h
From the text: as §1, §2

DGAT1 = assay: as above; conditions: 1 μM, 24 h
From the text: as §1, §2

SCD1 = assay: as above; conditions: 1 μM, 24 h
From the text: as §1, §2

SREBP-2 [3] = assay: SREBP-2 expression in cultured primary human hepatocytes; conditions: Hepatocyte
Procedure, shortened: (§3)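 Primary human hepatocytes in culture exposed to a range of HPN-01 derivative concentrations; SREBP-1 and SREBP-2 mRNA expression then measured to assess inhibition.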

[4] = Cytotoxicity, inhibition of cell growth; conditions: human, read-out: CC50 (cytotoxic concentration that will kill half of the treated cells)
Protocol: FIGS. 10A and 10B. Inhibition of hepatocyte growth by HPN-01.
Huh7 cells and primary human hepatocytes were cultured in the presence of varying concentrations of HPN-01, and the inhibition of cell growth was measured.

Huh7 cells [5] = assay: LD content in Huh7 cells pre-treated with insulin, Oil-Red-O staining, absorbance OD 540 nm; conditions: Homo sapiens, Huh-7; Huh7 cells pre-treated with 1 mM insulin, 24 h; read-out: LD contents IC50 (Oil-Red-O, OD 540 nm)
Procedure, shortened: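 Huh7 cells, mock-treated or pre-treated with 1 mM insulin, were then exposed to compound at the indicated amounts. Lipid droplets stained with Oil Red O and quantified by absorbance at OD 540 nm.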

Huh7 cells [6] = assay: Lipid droplet (LD) formation in Huh7 cells, BODIPY 493/503 staining, confocal microscopy; conditions: Homo sapiens, Huh-7, 24 h
Protocol: FIGS. 5A-5D. Effect of HPN-01 on hepatocellular lipid droplet (LD) biogenesis. Heptoma cell line Huh7 cells were treated with various amounts of HPN-01 for 24 hours, either in the absence or in the presence of 400 μM oleic acid, which triggers LD formation, after which intracellular LD contents were observed using a Zeiss confocal microscope with fluorescence. FIG. 5A) Fluorescent analysis of untreated (DMSO) or HPN-01-treated cells in the absence (Top panels) and presence (Bottom panels) of oleic acid. Cellular LD contents were stained using BODIPY 493/503 and are shown in green. Blue indicates cell nuclei. FIG. 5B) LD size of treated and untreated (DMSO) cells, in the presence or absence of oleic acid. FIG. 5C) Mean fluorescence intensity of untreated (DMSO) and treated cells in the absence of oleic acid. FIG. 5D) Mean fluorescence intensity of untreated (DMSO) and treated cells in the presence of oleic acid.
Heptoma cell line Huh7 cells were treated with various amounts of HPN-01 for 24 h, either in the absence or in the presence of 400 μM oleic acid, and observed under a Zeiss confocal microscope. […] LD contents (stained with BODIPY 493/503, in green) were observed under a Zeiss confocal microscope. FIG. 5A. Blue indicates cell nuclei. FIG. 5B. LD size. FIG. 5C. Mean fluorescence intensity. Values were measured using ZEN software by counting 300 cells under each treatment condition.

SREBP-1 [7] = assay: SREBP-1 expression in cultured primary human hepatocytes; conditions: Hepatocyte
Procedure, shortened: as §3

NC(=O)c1cc(-c2ccc(Cl)cc2)cc(-c2ccc(S(N)(=O)=O)cc2)c1N [HPN-01, 2-amino-3-(p-sulfonamidophenyl)-5-(p-chlorophenyl) benzamide]
IC50 (adiponectin): 320 nM
Folds of inhibition FASN mRNA (FASN): 3.87±0.23 fold
Folds of inhibition LDLR mRNA (LDLR): 3.02±0.11 fold
Folds of inhibition FADS1 mRNA (FADS1): 3.06±0.17 fold
Folds of inhibition ACC mRNA (ACC): 4.12±0.34 fold
Folds of inhibition SREBP-1 mRNA (SREBP-1 [1]): 2.98±0.23 fold
Folds of inhibition DGAT2 mRNA (DGAT2): 3.77±0.45 fold
Folds of inhibition SREBP-2 mRNA (SREBP-2 [2]): 4.01±0.31 fold
Folds of inhibition ELOVL6 mRNA (ELOVL6): 2.84±0.22 fold
Folds of inhibition DGAT1 mRNA (DGAT1): 1.72±0.27 fold
Folds of inhibition SCD1 mRNA (SCD1): 4.63±0.48 fold
IC50 (SREBP-2 [3]): 3430 nM
CC50 ([4]; Huh7 cells): 54300 nM
CC50 ([4]; primary human hepatocytes): 77200 nM
IC50 (Huh7 cells [5]): 250 nM
IC50 (Huh7 cells [6]; with oleic acid stimulation (400 μM)): 270 nM
IC50 (Huh7 cells [6]; without oleic acid pre-treatment): 460 nM
IC50 (SREBP-1 [7]): 1710 nM
